Laboratory results as given in ChEMBL document CHEMBL3885881, “DrugMatrix”.

Organism: Rattus norvegicus
Assay: DrugMatrix - Regimen: Daily Repeat
Assay type: toxicity, organism-based, Sprague-Dawley
Design: regimen Daily Repeat, gender Male, age 6-8 weeks
Details: in vivo, po, route oral GAVAGE, […]; for ABSOLUTE BASOPHIL / ABSOLUTE EOSINOPHIL / ABSOLUTE LYMPHOCYTE / ABSOLUTE MONOCYTE / ABSOLUTE SEGMENTED NEUTROPHIL / BASOPHIL / EOSINOPHIL / ERYTHROCYTE COUNT / HEMATOCRIT / HEMOGLOBIN / LEUKOCYTE COUNT / LYMPHOCYTE / MEAN CORPUSCULAR HEMOGLOBIN / MEAN CORPUSCULAR HEMOGLOBIN CONCENTRATION / MEAN CORPUSCULAR VOLUME / MONOCYTE / NEUTROPHIL / NUCLEATED RED BLOOD CELLS / PLATELET COUNT: tissue Blood; for ALANINE AMINOTRANSFERASE / ALBUMIN / ALKALINE PHOSPHATASE / ASPARTATE AMINOTRANSFERASE / BLOOD UREA NITROGEN / CARBON DIOXIDE / CHLORIDE / CHOLESTEROL / CREATINE PHOSPHOKINASE / CREATININE / GLUCOSE / LACTATE DEHYDROGENASE / LIPASE / PHOSPHORUS / POTASSIUM / SODIUM / TOTAL BILIRUBIN / TOTAL PROTEIN / URIC ACID: tissue Plasma
[1] = 20 mg/kg, 120 h, dose level Low, time 5 day
[2] = 200 mg/kg, 72 h, dose level High, time 3 day
[3] = 200 mg/kg, 120 h, dose level High, time 5 day
[4] = 200 mg/kg, dose level High, time 28 day

CCCCCCCCCc1ccc(O)cc1 [4-NONYLPHENOL]
ABSOLUTE BASOPHIL [1]: 0 CELLS/uL
ABSOLUTE EOSINOPHIL [1]: 0 CELLS/uL
ABSOLUTE LYMPHOCYTE [1]: 17193.33 CELLS/uL
ABSOLUTE MONOCYTE [1]: 138.33 CELLS/uL
ABSOLUTE SEGMENTED NEUTROPHIL [1]: 1901.67 CELLS/uL
BASOPHIL [1]: 0%
EOSINOPHIL [1]: 0%
ERYTHROCYTE COUNT [1]: 5.43 x10E6/uL
HEMATOCRIT [1]: 34.2%
HEMOGLOBIN [1]: 13.17 G/DL
LEUKOCYTE COUNT [1]: 19.23 x10E3/uL
LYMPHOCYTE [1]: 89.67%
MEAN CORPUSCULAR HEMOGLOBIN [1]: 24.2 pg
MEAN CORPUSCULAR HEMOGLOBIN CONCENTRATION [1]: 38.5 G/DL
MEAN CORPUSCULAR VOLUME [1]: 62.9 fL
MONOCYTE [1]: 0.67%
NEUTROPHIL [1]: 9.67%
NUCLEATED RED BLOOD CELLS [1]: 0 /100WBC
PLATELET COUNT [1]: 1124 x10E3/uL
ALANINE AMINOTRANSFERASE [1]: 65.33 u/L
ALBUMIN [1]: 3.77 G/DL
ALKALINE PHOSPHATASE [1]: 413 u/L
ASPARTATE AMINOTRANSFERASE [1]: 82.67 u/L
BLOOD UREA NITROGEN [1]: 15.67 mg/dL
CARBON DIOXIDE [1]: 25.67 mmol/L
CHLORIDE [1]: 102.33 MEQ/L
CHOLESTEROL [1]: 56.33 mg/dL
CREATINE PHOSPHOKINASE [1]: 278 u/L
CREATININE [1]: 0.21 mg/dL
GLUCOSE [1]: 202.33 mg/dL
LACTATE DEHYDROGENASE [1]: 147 u/L
LIPASE [1]: 10.67 u/L
PHOSPHORUS [1]: 10.77 mg/dL
POTASSIUM [1]: 5.35 MEQ/L
SODIUM [1]: 142.1 MEQ/L
TOTAL BILIRUBIN [1]: 0.2 mg/dL
TOTAL PROTEIN [1]: 5.57 G/DL
URIC ACID [1]: 1.3 mg/dL
ABSOLUTE BASOPHIL [2]: 0 CELLS/uL
ABSOLUTE EOSINOPHIL [2]: 0 CELLS/uL
ABSOLUTE LYMPHOCYTE [2]: 7018 CELLS/uL
ABSOLUTE MONOCYTE [2]: 153.33 CELLS/uL
ABSOLUTE SEGMENTED NEUTROPHIL [2]: 495.33 CELLS/uL
BASOPHIL [2]: 0%
EOSINOPHIL [2]: 0%
ERYTHROCYTE COUNT [2]: 5.58 x10E6/uL
HEMATOCRIT [2]: 35.4%
HEMOGLOBIN [2]: 13.8 G/DL
LEUKOCYTE COUNT [2]: 7.67 x10E3/uL
LYMPHOCYTE [2]: 92%
MEAN CORPUSCULAR HEMOGLOBIN [2]: 24.73 pg
MEAN CORPUSCULAR HEMOGLOBIN CONCENTRATION [2]: 39 G/DL
MEAN CORPUSCULAR VOLUME [2]: 63.47 fL
MONOCYTE [2]: 2%
NEUTROPHIL [2]: 6%
NUCLEATED RED BLOOD CELLS [2]: 0 /100WBC
PLATELET COUNT [2]: 1128 x10E3/uL
ALANINE AMINOTRANSFERASE [2]: 81.33 u/L
ALBUMIN [2]: 3.77 G/DL
ALKALINE PHOSPHATASE [2]: 503.67 u/L
ASPARTATE AMINOTRANSFERASE [2]: 95.67 u/L
BLOOD UREA NITROGEN [2]: 14.33 mg/dL
CARBON DIOXIDE [2]: 32 mmol/L
CHLORIDE [2]: 103 MEQ/L
CHOLESTEROL [2]: 45.33 mg/dL
CREATINE PHOSPHOKINASE [2]: 276.67 u/L
CREATININE [2]: 0.21 mg/dL
GLUCOSE [2]: 139 mg/dL
LACTATE DEHYDROGENASE [2]: 138.67 u/L
LIPASE [2]: 10 u/L
PHOSPHORUS [2]: 10.23 mg/dL
POTASSIUM [2]: 5.46 MEQ/L
SODIUM [2]: 145.47 MEQ/L
TOTAL BILIRUBIN [2]: 0.1 mg/dL
TOTAL PROTEIN [2]: 5.47 G/DL
URIC ACID [2]: 0.9 mg/dL
ABSOLUTE BASOPHIL [3]: 0 CELLS/uL
ABSOLUTE EOSINOPHIL [3]: 0 CELLS/uL
ABSOLUTE LYMPHOCYTE [3]: 11098.67 CELLS/uL
ABSOLUTE MONOCYTE [3]: 165.33 CELLS/uL
ABSOLUTE SEGMENTED NEUTROPHIL [3]: 402.67 CELLS/uL
NUCLEATED RED BLOOD CELLS [3]: 0 /100WBC
CARBON DIOXIDE [3]: 26.67 mmol/L
LACTATE DEHYDROGENASE [3]: 116.33 u/L
LIPASE [3]: 10.33 u/L
URIC ACID [3]: 1.43 mg/dL
BASOPHIL [4]: 0.42%
EOSINOPHIL [4]: 0.61%
ERYTHROCYTE COUNT [4]: 8.21 x10E6/uL
HEMATOCRIT [4]: 48.61%
HEMOGLOBIN [4]: 16.26 G/DL
LEUKOCYTE COUNT [4]: 11.53 x10E3/uL
LYMPHOCYTE [4]: 85.82%
MEAN CORPUSCULAR HEMOGLOBIN [4]: 19.84 pg
MEAN CORPUSCULAR HEMOGLOBIN CONCENTRATION [4]: 33.5 G/DL
MEAN CORPUSCULAR VOLUME [4]: 59.24 fL
MONOCYTE [4]: 1.34%
NEUTROPHIL [4]: 10.54%
PLATELET COUNT [4]: 1292.8 x10E3/uL
ALANINE AMINOTRANSFERASE [4]: 29.3 u/L
ALBUMIN [4]: 3.91 G/DL
ALKALINE PHOSPHATASE [4]: 186.6 u/L
ASPARTATE AMINOTRANSFERASE [4]: 70.1 u/L
BLOOD UREA NITROGEN [4]: 11.8 mg/dL
CHLORIDE [4]: 107.1 MEQ/L
CHOLESTEROL [4]: 66 mg/dL
CREATINE PHOSPHOKINASE [4]: 191.6 u/L
CREATININE [4]: 0.46 mg/dL
GLUCOSE [4]: 145.6 mg/dL
PHOSPHORUS [4]: 12.09 mg/dL
POTASSIUM [4]: 6.67 MEQ/L
SODIUM [4]: 149 MEQ/L
TOTAL BILIRUBIN [4]: 0.23 mg/dL
TOTAL PROTEIN [4]: 6.7 G/DL
